Calls of active or inactive are those of the source. Rule as the data show it: active = inhibition above about 50%; inactive = the rest.
molecular target: Gag-Pol polyprotein (Human immunodeficiency virus type 1 group M subtype B (isolate HXB2)) (UniProt P04585); assay: RNase H inhibition, HIV 1 Gag Pol polyprotein, FRET biochemical assay, screening (AID 372); conditions: HIV-1 RT RNase H, FRET RNA/DNA substrate fluorescence

Compared with O=C(N/N=C/c1ccccc1Cl)c1cc(O)c(O)c(O)c1, O=C(N/N=C/c1ccc(/C=N/NC(=O)c2ccc(O)c(O)c2)cc1)c1ccc(O)c(O)c1 is 3.5-fold higher in IC50: 0.6 µM for the first, 2.1 µM for the second. The first is the more potent here.

Cc1cc(Cl)ccc1OCC(=O)Nc1sc(C)c(C)c1C(N)=O and Cc1sc(NC(=O)Cc2ccccc2)c(C(N)=O)c1C are within 1.5-fold of each other in IC50: 10.7 µM for the first, 8 µM for the second.

CC1=NN(c2ccc(S(N)(=O)=O)cc2)C(=O)/C1=C/c1ccc(-c2ccc(Cl)cc2Cl)o1 and O=C(O)c1cc(-c2ccc(/C=C3/Sc4ccccc4C3=O)o2)ccc1O are within 1.5-fold of each other in IC50: 3.8 µM for the first, 3.3 µM for the second.

Going from O=C(O)C1Nc2c(Cl)cc(Cl)cc2C2C=CCC12 (centres undefined) to O=C1C(Cl)=C/C(=N\S(=O)(=O)c2ccccc2)C(Cl)=C1Cl, the IC50 falls from 72 µM to 3.8 µM (19-fold). The second is the more potent here.

First: Cc1cc(-c2ccc(C=C3C(=O)NC(=S)NC3=O)o2)c([N+](=O)[O-])cc1C
Second: Cc1ccc(C=C2C(=O)NC(=S)N(c3ccccc3Cl)C2=O)o1
The IC50 of the first is 2.7-fold lower: 3 µM for the first, 8 µM for the second. The first is the more potent here.

Cc1ccc(C)n1-c1ccc(O)c(C(=O)O)c1 and Cc1ccc(C)n1-c1ccc(SCC(=O)O)cc1 are within 1.5-fold of each other in IC50: 9 µM for the first, 8 µM for the second.

Cc1ccc(S(=O)(=O)/N=C2\C=C(Sc3ncn[nH]3)C(=O)c3ccccc32)cc1 and Cc1ccc(S(=O)(=O)/N=C2\C=CC(=O)C=C2Cl)cc1 are within 1.5-fold of each other in IC50: 1.3 µM for the first, 1.5 µM for the second.

Going from O=C1/C(=C\c2ccc(O)c(O)c2)SC(=S)N1c1cccc(Cl)c1 to Cc1ccc(N2C(=O)/C(=C/c3ccc(O)c(O)c3)SC2=S)cc1C, the IC50 rises from 4.5 µM to 12 µM (2.7-fold). The first is the more potent here.

First: NC(=O)c1c(NC(=O)CCc2ccccc2)sc2c1CCCCCC2
Second: CCOc1ccc(NC(=O)c2c(NC(=O)c3ccco3)sc3c2CCCCC3)cc1
The IC50 of the first is 6.7-fold lower: 1.5 µM for the first, 10 µM for the second. The first is the more potent here.

Going from O=C1/C(=C/c2ccc(O)c(O)c2)SC(=S)N1c1ccc(O)cc1 to O=C1NN(c2ccc(I)cc2)C(=O)/C1=C\c1ccc(O)c(O)c1, the IC50 rises from 3.5 µM to 10.8 µM (3.1-fold).

Going from CCOc1cccc(N2C(=O)/C(=C/c3cn(CC(=O)OC)c4ccccc34)C(=O)NC2=S)c1 to CCOc1ccc(N2C(=O)/C(=C/c3ccc(Br)o3)C(=O)NC2=S)cc1, the IC50 falls from 5.5 µM to 2.1 µM (2.6-fold).

First: COc1ccccc1N=C(NOCc1ccc(Cl)cc1Cl)c1nonc1N
Second: COc1cc(C=O)ccc1OCCCOc1cccc(Oc2ccccc2)c1
The IC50 of the first is 59-fold lower: 1.7 µM for the first, 100 µM for the second.

First: O=C1NC(=S)N(c2ccc(Cl)cc2)C(=O)/C1=C\C=C\c1ccccc1[N+](=O)[O-]
Second: O=C1NC(=S)N(c2ccccc2F)C(=O)/C1=C/c1ccc(I)o1
The IC50 of the first is 2-fold lower: 3.3 µM for the first, 6.7 µM for the second.

Going from Cc1ccc(S(=O)(=O)N=C2C=C(Cl)C(=O)C(Br)=C2)cc1 to CCOc1ccc(C2=CC(=O)C=CC2=O)cc1, the IC50 falls from 3.1 µM to 0.9 µM (3.4-fold). The second is the more potent here.

First: COc1ccc2oc(=O)c(-c3csc(Nc4ccc(Br)cc4)n3)cc2c1
Second: COc1ccc(/C=C\C(=O)c2c(-c3ccccc3)c3cc(C)ccc3[nH]c2=O)c(OC)c1
The IC50 of the first is 2.2-fold lower: 10.1 µM for the first, 22 µM for the second.

Going from O=c1oc2ccccc2c(O)c1/C=C1\C=Nc2ccccc21 to Cc1ccccc1-n1c(O)c(C=C2C=CC=N2)c(=O)[nH]c1=S, the IC50 rises from 3.2 µM to 10.2 µM (3.2-fold).

Compared with Cc1cc(-c2ccco2)c(C#N)c(SCC(=O)c2ccc(O)c(O)c2)n1, Cc1ccc(-c2c(C#N)c(SCC(=O)c3ccc(O)c(O)c3)nc3c2CCCC3)o1 is 4.6-fold higher in IC50: 1.4 µM for the first, 6.5 µM for the second.

First: Cc1sc(NC(=O)C2CC3CCC2C3)c(C(N)=O)c1C (centres undefined)
Second: Cc1sc(NC(=O)C2CCCO2)c(C(N)=O)c1C (centres undefined)
The IC50 of the first is 4.3-fold higher: 13 µM for the first, 3 µM for the second.

First: O=C1NC(=O)/C(=C/c2ccc(-c3ccc(O)c(C(=O)O)c3)o2)S1
Second: Cc1ccc(NC(=O)c2c(NC(=O)C(F)(F)F)sc(-c3ccccc3)c2C)c(C)c1
The IC50 of the first is 1.5-fold higher: 4.2 µM for the first, 2.8 µM for the second.

First: COc1ccc(-c2nc3sc(-c4ccc(OC)cc4)nc3s2)cc1
Second: Oc1c(Br)cc(/C=N/Nc2nnc3c(n2)[nH]c2ccccc23)c(Br)c1O
The IC50 of the first is 2.1-fold lower: 1.9 µM for the first, 4 µM for the second.

Cc1nn(CC(=O)Nc2sc(C)c(C)c2C(N)=O)c(C)c1[N+](=O)[O-] and O=C1CC(=O)c2ccc3c4c(ccc1c24)C(=O)CC3=O are within 1.5-fold of each other in IC50: 4.3 µM for the first, 3.8 µM for the second.

Cc1onc(-c2ccccc2)c1C(=O)Nc1sc(C)c(C)c1C(N)=O was tested, and the IC50 was “inactive”.
In the case of CCOc1ccc(NC(=O)c2c(NC(=O)c3ccccc3)sc3c2CCCCC3)cc1, the IC50 is reported as “inactive”.

Source: PubChem BioAssay AID372 (MTDP, 2006)
